Test results from ChEMBL document CHEMBL1153916, “Lithospermic acid derivatives from Lithospermum erythrorhizon increased expression of serine palmitoyltransferase in human HaCaT cells” (Bioorg Med Chem Lett, 2009).
Active and inactive are the calls of the source. No cut-off for these calls is given here.

How the values were obtained:
HaCaT [1] = test: Increase in serine palmitoyltransferase protein expression in human HaCaT cells at 30 ug/mL by Western blot relative to untreated control; assay type: functional
HaCaT [2] = test: Increase in serine palmitoyltransferase protein expression in human HaCaT cells at 100 ug/mL by Western blot relative to untreated control; assay type: functional
HaCaT [3] = test: Effect on p65 nuclear expression in human HaCaT cells at 100 ug/mL after 12 hrs by Western blot; assay type: functional, cell-based
HaCaT [4] = test: Activation of NF-kappaB expressed in human HaCaT cells by luciferase reporter gene assay; assay type: cell-based
HaCaT [5] = test: Increase in serine palmitoyltransferase 1 mRNA expression in human HaCaT cells by RT-PCR relative to untreated control; assay type: functional
HaCaT [6] = test: Increase in serine palmitoyltransferase 2 mRNA expression in human HaCaT cells by RT-PCR relative to untreated control; assay type: functional
HaCaT [7] = test: Cytotoxicity against human HaCaT cells at 50 to 200 ug/mL by MTT assay; assay type: cell-based

SMILES	Activity (HaCaT [1])	Activity (HaCaT [2])	Activity (HaCaT [3])	Activity (HaCaT [4])	Activity (HaCaT [5])	Activity (HaCaT [6])	Activity (HaCaT [7])
COC(=O)[C@H]1c2c(/C=C/C(=O)O[C@H](Cc3ccc(O)c(O)c3)C(=O)O)ccc(O)c2O[C@@H]1c1ccc(O)c(O)c1	8.9%	23%	inactive	inactive	139%	139%	Non-toxic
O=C(/C=C/c1ccc(O)c2c1[C@H](C(=O)O)[C@@H](c1ccc(O)c(O)c1)O2)O[C@H](Cc1ccc(O)c(O)c1)C(=O)O [LITHOSPERMIC ACID]	21.7%	55%	inactive	inactive	121%	151%	Non-toxic
COC(=O)[C@@H](Cc1ccc(O)c(O)c1)OC(=O)/C=C/c1ccc(O)c2c1[C@H](C(=O)O)[C@@H](c1ccc(O)c(O)c1)O2	20.2%	81%	inactive	inactive	148%	159%	Non-toxic
NC(=O)c1cccnc1 [NIACINAMIDE]		57.3%			127%	128%	
